{"source": "patent US7647217B2", "about": "“Structure of the farnesoid X receptor ligand binding domain and methods of use therefor” (The Salk Institute for Biological Studies, priority 2002, dated 2010)", "tested_on": "IBABP mRNA in HT29-FXRFL cells", "assay": "Northern blot of IBABP mRNA induction in HT29 stable cell lines", "type": "cell-based, human", "method": "20 μg total RNA was isolated using Trizol (Invitrogen) and used for Northern blot analysis. cDNA probe for human IBABP was prepared and hybridized to the blot. Blots were normalized by β-actin expression.\nHepG2 or HT29-derived cell lines were typically cultured in medium containing superstripped FBS for 24 hr before the addition of a ligand or DMSO (vehicle) for an additional 24-48 hr. Total RNA was isolated using TRIzol reagent and was resolved (10 μg/lane) on a 1% agarose, 2.2 M formaldehyde gel, transferred to a nylon membrane (Hybond N^+; Amersham Biosciences, Inc.), and cross-linked to the membrane with UV light.\ncDNA probes were radiolabeled with [α-^32P]dCTP using the highprime labeling kit (Amersham Biosciences, Inc.). Membranes were hybridized using the QuikHyb hybridization solution (Stratagene, La Jolla, Calif.) according to the manufacturer's protocol. Blots were normalized for variations of RNA loading by hybridization to a control probe, either, 18 S ribosomal cDNA, or the ribosomal protein 36B4. The RNA levels were quantitated using a PhosphorImager (ImageQuant software; Molecular Dynamics, Inc., Sunnyvale, Calif.) in addition to being exposed to X-ray film.\nHuman colon cells HT29 (FXR null until differentiated) were infected with retroviral vectors that expressed either FXR constructs and the puromycin-resistant gene or the puromycin-resistant gene alone. Puromycin resistant cells were isolated and pooled cell populations were propagated that harbored either the vector alone (HT29-BABE), overexpressed FXR full length (HT29-FXRFL), a non-functional FXR truncated at the AF2 region (HT29-FXR-AF2), or a constitutively active FXR that has the VP16 activation domain fused N-terminal of the protein (HT29-VP16-FXR). Confirmation of the successful establishment of the different stable cell lines was established via northern blot analysis of FXR message levels in the cells (see FIG. 4A). […]\nThe ability of the novel compounds identified herein to induce IBABP gene expression in this cell system was also examined. Total RNA from HT29 stable cells treated overnight with fexaramine, fexarine and fexarene was probed for IBABP gene expression (see FIG. 4D).", "key": {"[1]": {"settings": "HT29-FXRFL, overnight treatment"}}, "data": [{"molecule": "C[C@H](CCC(=O)O)[C@H]1CC[C@H]2[C@@H]3[C@H](O)C[C@@H]4C[C@H](O)CC[C@]4(C)[C@H]3CC[C@]12C", "note": "[CDCA, chenodeoxycholic acid, reference compound]", "values": [{"measurement": "induction of IBABP mRNA in control lines", "setting": "HT29-BABE or HT29-FXR-AF2 cell lines", "value": "No induction"}, {"measurement": "concentration of maximal activation of the IBABP gene", "setting": "[1]", "value": 100, "unit": "µM"}, {"measurement": "induction of IBABP mRNA", "setting": "[1]", "value": "robust concentration dependent induction"}]}]}
